Laboratory results from publication PMC7762498, “Demethoxycurcumin analogue DMC-BH exhibits potent anticancer effects on orthotopic glioblastomas” (Aging (Albany NY), 2020).

Test system: human glial cell line, HEB
Assay: MTT assay on normal glial cells
Type: cell-based
Settings: 24 hours of incubation with 32 μM
Method: To investigate the cytotoxicity of DMC-BH on glioma cells (Figure 1A), we used an MTT assay to assess viability changes in SHG-44, C6, U251, U87, A172 and primary glioma cells treated with various concentrations of DMC-BH for 24, 48 or 72 hours (Figure 1B–1H). […] U251 and SHG-44 cells were more sensitive to DMC-BH. We then used the human glial cell line, HEB, to evaluate the toxicity of DMC-BH in normal cells. […] DMC-BH was not toxic to normal cells.
Glioblastoma cells were seeded into 96-well plates and exposed to vehicle (PBS) or different concentrations of DMC-BH for 24, 48 or 72 hours. Cell viability was measured using an MTT assay and was expressed as a ratio to the absorbance value of the control cells at 570 nm.

SMILES: COc1cc(C=CC(=O)CC(=O)C=Cc2ccc(O)c(CN3CCCC3)c2)ccc1O [DMC-BH, 1-[4-Hydroxy-3-(pyrrolidin-1-ylmethyl)phenyl]-7-(4-hydroxy-3-methoxyphenyl) hepta-1,6-diene-3,5-dione]
- viability of HEB cells: not reduced markedly
